Earlier results as cited in patent US20240343692A1 (priority 2021, published 2024).
pEC50, pKi: −log10 of the molar value. Read-outs that look alike come from different tables or passages of the source. Marks after values point to notes of the source that are not given here.

Assays:
Muscarinic M2 = molecular target: T1, Muscarinic M2 (Homo sapiens, UniProt P08172); conditions: 10 μM; data from ref. 34; cited from earlier work
T1 sequence (P08172 1-466): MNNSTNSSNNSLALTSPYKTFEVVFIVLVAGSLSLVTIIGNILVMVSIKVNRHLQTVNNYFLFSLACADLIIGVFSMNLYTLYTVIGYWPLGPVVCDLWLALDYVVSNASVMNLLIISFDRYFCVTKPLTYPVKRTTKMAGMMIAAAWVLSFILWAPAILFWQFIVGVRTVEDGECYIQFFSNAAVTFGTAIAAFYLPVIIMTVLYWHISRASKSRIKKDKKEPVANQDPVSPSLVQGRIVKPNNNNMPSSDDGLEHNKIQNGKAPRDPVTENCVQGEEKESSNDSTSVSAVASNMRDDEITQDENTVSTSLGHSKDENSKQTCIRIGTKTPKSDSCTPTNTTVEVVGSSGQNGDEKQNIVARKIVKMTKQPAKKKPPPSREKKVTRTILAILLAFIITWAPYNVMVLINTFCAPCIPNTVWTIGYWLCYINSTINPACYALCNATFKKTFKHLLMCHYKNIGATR

GABAA = conditions: 10 μM; rat receptor data; data from ref. 34; cited from earlier work
[1] = molecular target: Nicotinic Acetylcholine α4β2 (Homo sapiens, UniProt P17787+P43681); conditions: 10 μM; data from ref. 34; cited from earlier work
Sequence of Nicotinic Acetylcholine α4β2 (P43681 29-627 limits assumed): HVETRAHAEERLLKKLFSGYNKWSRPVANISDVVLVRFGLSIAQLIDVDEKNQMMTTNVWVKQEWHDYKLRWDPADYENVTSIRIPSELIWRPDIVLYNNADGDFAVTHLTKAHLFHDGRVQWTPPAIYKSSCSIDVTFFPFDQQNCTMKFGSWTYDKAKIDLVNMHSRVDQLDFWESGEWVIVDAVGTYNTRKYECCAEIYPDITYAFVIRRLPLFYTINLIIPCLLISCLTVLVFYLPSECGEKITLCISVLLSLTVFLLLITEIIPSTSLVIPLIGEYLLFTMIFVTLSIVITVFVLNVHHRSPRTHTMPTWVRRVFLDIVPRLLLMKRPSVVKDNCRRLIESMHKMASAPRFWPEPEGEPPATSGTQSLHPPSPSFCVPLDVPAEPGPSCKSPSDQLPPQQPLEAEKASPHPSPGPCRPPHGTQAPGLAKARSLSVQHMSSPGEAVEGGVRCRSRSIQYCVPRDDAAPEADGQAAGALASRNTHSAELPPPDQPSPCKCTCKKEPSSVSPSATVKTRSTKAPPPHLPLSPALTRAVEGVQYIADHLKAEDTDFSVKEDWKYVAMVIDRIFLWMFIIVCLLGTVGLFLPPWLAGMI
Sequence of Nicotinic Acetylcholine α4β2 (P17787 26-502): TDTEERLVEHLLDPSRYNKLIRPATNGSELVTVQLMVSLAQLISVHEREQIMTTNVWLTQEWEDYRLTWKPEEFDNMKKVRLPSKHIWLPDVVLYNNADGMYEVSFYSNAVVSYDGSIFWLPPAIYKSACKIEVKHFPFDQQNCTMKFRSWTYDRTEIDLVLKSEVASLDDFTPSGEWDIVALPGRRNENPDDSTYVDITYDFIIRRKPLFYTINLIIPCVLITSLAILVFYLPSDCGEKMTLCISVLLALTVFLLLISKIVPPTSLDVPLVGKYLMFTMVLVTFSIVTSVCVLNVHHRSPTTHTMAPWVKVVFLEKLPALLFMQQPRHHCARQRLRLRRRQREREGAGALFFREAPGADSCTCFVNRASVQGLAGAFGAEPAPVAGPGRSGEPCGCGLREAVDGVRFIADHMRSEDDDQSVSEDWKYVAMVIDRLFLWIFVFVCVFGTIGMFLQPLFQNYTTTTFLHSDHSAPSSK

Dopamine D2L = Dopamine D2L (Homo sapiens, UniProt P14416); conditions: 10 μM; data from ref. 34; cited from earlier work
Sequence of Dopamine D2L (P14416 whole entry): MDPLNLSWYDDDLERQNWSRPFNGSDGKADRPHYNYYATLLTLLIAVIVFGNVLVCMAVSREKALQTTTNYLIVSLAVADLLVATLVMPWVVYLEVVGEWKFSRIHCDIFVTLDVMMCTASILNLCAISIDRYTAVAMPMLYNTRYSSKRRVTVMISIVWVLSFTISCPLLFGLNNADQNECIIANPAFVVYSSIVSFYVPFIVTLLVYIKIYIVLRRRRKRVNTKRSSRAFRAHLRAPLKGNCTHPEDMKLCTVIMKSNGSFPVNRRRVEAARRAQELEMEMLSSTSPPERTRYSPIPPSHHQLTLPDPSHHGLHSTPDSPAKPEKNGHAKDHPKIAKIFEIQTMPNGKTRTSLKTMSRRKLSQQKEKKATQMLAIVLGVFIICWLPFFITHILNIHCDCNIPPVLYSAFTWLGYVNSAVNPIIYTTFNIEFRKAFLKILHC

Dopamine D1 = Dopamine D1 (Homo sapiens, UniProt P21728); conditions: 10 μM; data from ref. 34; cited from earlier work
Sequence of Dopamine D1 (P21728 whole entry): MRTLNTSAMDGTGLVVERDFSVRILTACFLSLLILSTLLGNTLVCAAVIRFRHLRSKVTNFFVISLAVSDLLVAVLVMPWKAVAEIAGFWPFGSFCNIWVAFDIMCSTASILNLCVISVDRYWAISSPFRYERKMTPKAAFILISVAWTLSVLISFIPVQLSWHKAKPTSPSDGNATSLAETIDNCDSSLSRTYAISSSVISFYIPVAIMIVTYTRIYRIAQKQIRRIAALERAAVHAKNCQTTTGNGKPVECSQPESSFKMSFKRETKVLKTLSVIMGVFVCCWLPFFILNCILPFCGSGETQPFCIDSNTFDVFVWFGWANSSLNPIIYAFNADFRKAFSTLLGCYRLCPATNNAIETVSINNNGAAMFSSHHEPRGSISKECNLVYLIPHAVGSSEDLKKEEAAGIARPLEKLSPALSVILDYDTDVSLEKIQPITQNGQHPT

Muscarinic M5 = molecular target: T2, Muscarinic M5 (Homo sapiens, UniProt P08912); conditions: 10 μM; data from ref. 34; cited from earlier work
T2 sequence (P08912 1-532): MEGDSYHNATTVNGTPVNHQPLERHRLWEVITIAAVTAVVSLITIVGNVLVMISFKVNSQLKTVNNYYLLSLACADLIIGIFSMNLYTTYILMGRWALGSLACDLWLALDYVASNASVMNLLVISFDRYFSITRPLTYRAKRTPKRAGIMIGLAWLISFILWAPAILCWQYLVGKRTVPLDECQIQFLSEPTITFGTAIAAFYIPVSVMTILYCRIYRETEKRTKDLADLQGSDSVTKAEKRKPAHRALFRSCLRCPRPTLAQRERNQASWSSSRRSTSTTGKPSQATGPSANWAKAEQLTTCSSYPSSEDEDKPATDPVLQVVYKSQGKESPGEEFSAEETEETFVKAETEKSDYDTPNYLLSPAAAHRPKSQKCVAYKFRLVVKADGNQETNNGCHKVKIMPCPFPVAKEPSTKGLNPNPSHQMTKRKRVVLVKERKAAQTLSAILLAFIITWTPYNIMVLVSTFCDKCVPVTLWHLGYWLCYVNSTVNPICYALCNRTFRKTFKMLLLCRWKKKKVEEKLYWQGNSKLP

Serotonin 5-HT2A [2] = molecular target: T3, Serotonin 5-HT2A (Homo sapiens, UniProt P28223); conditions: 10 μM; data from ref. 34; cited from earlier work
T3 sequence (P28223 whole entry, looked up): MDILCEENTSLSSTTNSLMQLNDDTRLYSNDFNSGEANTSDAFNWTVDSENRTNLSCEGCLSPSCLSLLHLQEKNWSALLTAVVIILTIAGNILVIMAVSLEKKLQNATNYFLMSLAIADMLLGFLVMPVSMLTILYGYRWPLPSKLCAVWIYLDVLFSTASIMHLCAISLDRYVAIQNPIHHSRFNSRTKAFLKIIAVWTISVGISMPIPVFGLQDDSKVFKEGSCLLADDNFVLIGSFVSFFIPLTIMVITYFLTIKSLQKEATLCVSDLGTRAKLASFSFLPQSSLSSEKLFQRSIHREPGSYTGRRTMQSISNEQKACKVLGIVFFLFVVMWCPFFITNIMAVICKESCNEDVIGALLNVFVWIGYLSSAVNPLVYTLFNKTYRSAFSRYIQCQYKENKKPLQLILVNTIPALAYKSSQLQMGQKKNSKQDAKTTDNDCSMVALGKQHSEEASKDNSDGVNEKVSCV

Opiate κ = Opiate κ (Homo sapiens, UniProt P41145); conditions: 10 μM; data from ref. 34; cited from earlier work
Sequence of Opiate κ (P41145 whole entry): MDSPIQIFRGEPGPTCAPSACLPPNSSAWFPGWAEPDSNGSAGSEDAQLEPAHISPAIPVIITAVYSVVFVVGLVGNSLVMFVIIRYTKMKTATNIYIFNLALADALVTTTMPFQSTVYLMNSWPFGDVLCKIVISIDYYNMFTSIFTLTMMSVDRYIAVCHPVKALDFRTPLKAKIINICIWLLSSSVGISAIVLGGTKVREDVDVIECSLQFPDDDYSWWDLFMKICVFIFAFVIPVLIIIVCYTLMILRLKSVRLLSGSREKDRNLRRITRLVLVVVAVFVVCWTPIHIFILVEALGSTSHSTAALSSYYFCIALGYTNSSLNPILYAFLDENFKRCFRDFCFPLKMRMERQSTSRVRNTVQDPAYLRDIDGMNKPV

Dopamine D3 = Dopamine D3 (Homo sapiens, UniProt P35462); conditions: 10 μM; data from ref. 34; cited from earlier work
Sequence of Dopamine D3 (P35462 whole entry): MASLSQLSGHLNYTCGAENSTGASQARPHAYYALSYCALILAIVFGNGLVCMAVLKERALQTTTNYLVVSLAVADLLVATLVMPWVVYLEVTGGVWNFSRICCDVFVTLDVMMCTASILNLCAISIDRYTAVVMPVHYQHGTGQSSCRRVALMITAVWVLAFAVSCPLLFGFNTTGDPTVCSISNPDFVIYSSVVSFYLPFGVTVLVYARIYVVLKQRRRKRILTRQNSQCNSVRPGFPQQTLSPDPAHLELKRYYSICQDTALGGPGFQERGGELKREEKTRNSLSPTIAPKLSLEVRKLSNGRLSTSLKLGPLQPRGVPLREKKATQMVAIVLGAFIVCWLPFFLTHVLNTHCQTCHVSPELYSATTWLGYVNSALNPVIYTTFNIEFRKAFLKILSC

Adrenergic α1 = conditions: 10 μM; rat receptor data; data from ref. 35; cited from earlier work
Sigma-1 = Sigma-1 (Homo sapiens, UniProt Q99720)
Sequence of Sigma-1 (Q99720 whole entry): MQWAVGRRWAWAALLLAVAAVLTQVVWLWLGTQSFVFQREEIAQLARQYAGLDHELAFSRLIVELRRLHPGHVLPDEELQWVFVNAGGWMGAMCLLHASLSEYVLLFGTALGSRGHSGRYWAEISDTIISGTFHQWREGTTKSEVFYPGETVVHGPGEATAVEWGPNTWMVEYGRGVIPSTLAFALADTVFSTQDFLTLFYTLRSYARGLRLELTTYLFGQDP

Serotonin 5-HT2A [3] = molecular target: T3, Serotonin 5-HT2A; conditions: data from ref. 36; read-out: activation potency EC50, Serotonin 5-HT2A; cited from earlier work
Serotonin 5-HT1A = molecular target: T4, Serotonin 5-HT1A (Homo sapiens, UniProt P08908); conditions: read-out: inhibition constants Ki, Serotonin 5-HT1A; data from ref. 36; cited from earlier work
T4 sequence (P08908 1-422): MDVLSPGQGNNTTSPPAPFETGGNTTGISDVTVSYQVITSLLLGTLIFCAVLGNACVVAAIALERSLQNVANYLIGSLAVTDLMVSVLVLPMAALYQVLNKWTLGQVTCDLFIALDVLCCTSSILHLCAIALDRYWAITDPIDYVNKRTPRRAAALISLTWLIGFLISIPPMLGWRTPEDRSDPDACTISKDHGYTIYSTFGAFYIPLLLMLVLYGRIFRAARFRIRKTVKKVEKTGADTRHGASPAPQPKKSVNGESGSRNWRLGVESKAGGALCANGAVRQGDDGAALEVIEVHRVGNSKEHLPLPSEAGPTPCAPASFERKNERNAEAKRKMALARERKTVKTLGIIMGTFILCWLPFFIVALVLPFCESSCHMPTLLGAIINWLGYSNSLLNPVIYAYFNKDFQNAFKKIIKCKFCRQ

## CCN(CC)C(=O)[C@@H]1C=C2c3cccc4[nH]cc(c34)C[C@H]2N(C)C1 [D-LSD, D-lysergic acid diethylamide]
Muscarinic M2
  Percent Inhibition of Specific Binding of a Radioligand Standard, Muscarinic M2: 2 % inh
GABAA
  Percent Inhibition of Specific Binding of a Radioligand Standard, GABAA: 0 % inh
[1]
  Percent Inhibition of Specific Binding of a Radioligand Standard, Nicotinic Acetylcholine α4β2: 0 % inh
Dopamine D2L
  Percent Inhibition of Specific Binding of a Radioligand Standard, Dopamine D2L: 85 % inh
Dopamine D1
  Percent Inhibition of Specific Binding of a Radioligand Standard, Dopamine D1: 93 % inh
Muscarinic M5
  Percent Inhibition of Specific Binding of a Radioligand Standard, Muscarinic M5: 15 % inh
Serotonin 5-HT2A [2]
  Percent Inhibition of Specific Binding of a Radioligand Standard, Serotonin 5-HT2A: 93 % inh
Opiate κ
  Percent Inhibition of Specific Binding of a Radioligand Standard, Opiate κ: 29 % inh
Dopamine D3
  Percent Inhibition of Specific Binding of a Radioligand Standard, Dopamine D3: 78 % inh
Adrenergic α1
  Percent Inhibition of Specific Binding of a Radioligand Standard, Adrenergic α1: 100^d % inh

## CN(C)CCc1c[nH]c2ccccc12 [DMT]
Sigma-1; data from ref. 37; read-out: inhibition constants Ki, Sigma-1; cited from earlier work
  pKi: 5.28
Serotonin 5-HT2A [3]
  pEC50: 7.12

## CN(C)CCc1c[nH]c2cccc(O)c12 [Psilocin]
Serotonin 5-HT1A
  pKi: 6.91
Sigma-1; read-out: inhibition constants Ki, Sigma-1; data from ref. 37; cited from earlier work
  pKi: < 5.00
